# Patent US10189841B2, “Purinones as ubiquitin-specific protease 1 inhibitors” (Forma Therapeutics, Inc., priority 2015, dated 2019)
# Molecular target: USP1 (construct USP1 (I-785, GG670, 671AA)/UAF1 (I-677)-Flag) (Homo sapiens (Human), UniProt O94782, G670A/G671A)
# Assay: Ubiquitin-Rhodamine 110 assay for USP1 activity
# Format: biochemical
# Details: USP1/UAF1 25 pM, Ub-Rh110 25 nM, 30 min preincubation
# Procedure, shortened: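 Two formats with the USP1/UAF1 complex and 25 nM ubiquitin-rhodamine 110 in pH 8.0 Tris buffer with calcium, glutathione and detergent. Single-point screening used 10 µM, 100 pM enzyme and 45 min. Inhibition was set against no-enzyme and DMSO wells.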
# USP1 (construct USP1 (I-785, GG670, 671AA)/UAF1 (I-677)-Flag), sequence (O94782 whole entry G670A/G671A): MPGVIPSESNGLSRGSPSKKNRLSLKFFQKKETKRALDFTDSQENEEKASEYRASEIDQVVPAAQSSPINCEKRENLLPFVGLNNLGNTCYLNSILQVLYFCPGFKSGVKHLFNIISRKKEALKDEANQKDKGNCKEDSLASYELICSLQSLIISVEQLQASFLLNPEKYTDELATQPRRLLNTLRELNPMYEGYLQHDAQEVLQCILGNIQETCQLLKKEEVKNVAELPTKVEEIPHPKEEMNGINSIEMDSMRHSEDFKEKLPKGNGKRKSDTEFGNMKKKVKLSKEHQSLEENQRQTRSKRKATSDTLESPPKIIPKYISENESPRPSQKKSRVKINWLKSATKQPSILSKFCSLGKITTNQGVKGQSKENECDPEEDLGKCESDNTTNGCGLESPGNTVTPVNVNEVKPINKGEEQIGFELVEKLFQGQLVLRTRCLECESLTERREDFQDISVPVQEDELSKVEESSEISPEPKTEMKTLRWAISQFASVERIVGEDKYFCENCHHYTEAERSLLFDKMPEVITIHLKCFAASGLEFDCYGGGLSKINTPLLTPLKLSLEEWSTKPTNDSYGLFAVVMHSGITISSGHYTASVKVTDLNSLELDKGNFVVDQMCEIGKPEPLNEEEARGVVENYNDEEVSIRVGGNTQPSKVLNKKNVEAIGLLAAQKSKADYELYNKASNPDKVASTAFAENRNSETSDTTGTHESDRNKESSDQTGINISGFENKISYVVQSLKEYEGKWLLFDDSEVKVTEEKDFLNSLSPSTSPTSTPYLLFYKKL
# USP1 (construct USP1 (I-785, GG670, 671AA)/UAF1 (I-677)-Flag), sequence (Q8TAF3 whole entry partner): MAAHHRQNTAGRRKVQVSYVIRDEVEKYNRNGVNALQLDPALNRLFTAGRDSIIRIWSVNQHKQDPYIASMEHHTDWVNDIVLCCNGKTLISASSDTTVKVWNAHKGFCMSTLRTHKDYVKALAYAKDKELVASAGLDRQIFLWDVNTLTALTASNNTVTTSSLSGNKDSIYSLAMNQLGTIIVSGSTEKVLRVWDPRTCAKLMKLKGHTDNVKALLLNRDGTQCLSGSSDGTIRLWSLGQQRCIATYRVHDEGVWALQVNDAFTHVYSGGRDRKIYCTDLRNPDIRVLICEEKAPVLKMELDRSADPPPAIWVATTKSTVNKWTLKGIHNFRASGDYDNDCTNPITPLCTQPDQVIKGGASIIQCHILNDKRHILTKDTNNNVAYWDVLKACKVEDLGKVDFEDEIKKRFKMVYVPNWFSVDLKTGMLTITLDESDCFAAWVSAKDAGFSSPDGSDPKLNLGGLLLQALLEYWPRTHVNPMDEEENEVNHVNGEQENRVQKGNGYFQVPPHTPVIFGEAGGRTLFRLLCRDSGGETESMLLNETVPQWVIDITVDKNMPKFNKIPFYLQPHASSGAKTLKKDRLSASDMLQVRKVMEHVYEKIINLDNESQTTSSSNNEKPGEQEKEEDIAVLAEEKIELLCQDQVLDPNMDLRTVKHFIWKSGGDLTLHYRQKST
row,Structure (SMILES),IC50 [nM]
1,"CC(C)c1ccccc1-c1ncc2[nH]c(=O)n(Cc3ccc(-c4cnn(C5CCNCC5)c4)cc3)c2n1 [Compound I-540, 2-(2-isopropylphenyl)-9-(4-(1-(piperidin-4-yl)-1H-pyrazol-4-yl)benzyl)-7,9-dihydro-8H-purin-8-one]",200 to 2000
2,"CC(C)c1ccccc1-c1ncc2c(n1)n(Cc1ccc(-c3nc(C#N)cn3C)cc1)c(=O)n2C [Compound I-541, 2-(4-((2-(2-Isopropylphenyl)-7-methyl-8-oxo-7,8-dihydro-9H-purin-9-yl)methyl)phenyl)-1-methyl-1H-imidazole-4-carbonitrile]",< 50
3,"Cc1cc(CO)n(-c2ccc(Cn3c(=O)[nH]c4cnc(-c5ccccc5C5CC5)nc43)cc2)n1 [Compound I-542, 2-(2-Cyclopropylphenyl)-9-(4-(5-(hydroxymethyl)-3-methyl-1H-pyrazol-1-yl)benzyl)-7,9-dihydro-8H-purin-8-one]",< 50
4,"COC(=O)N1CCC(c2ccn(-c3ccc(Cn4c(=O)[nH]c5cnc(-c6ccccc6C(C)C)nc54)cc3)n2)CC1 [Compound I-543, Methyl 4-(1-(4-((2-(2-isopropylphenyl)-8-oxo-7,8-dihydro-9H-purin-9-yl)methyl)phenyl)-1H-pyrazol-3-yl)piperidine-1-carboxylate]",< 50
5,"CC(O)c1ccccc1-c1ncc2[nH]c(=O)n(Cc3ccc(-c4nc(C(F)(F)F)cn4C)cc3)c2n1 (centres unmarked) [Compound I-544, 2-(2-(1-Hydroxyethyl)phenyl)-9-(4-(1-methyl-4-(trifluoromethyl)-1H-imidazol-2-yl)benzyl)-7,9-dihydro-8H-purin-8-one]",50 to 200
